Values joined by “and” are separate entries in the source; they are usually repeats but may differ in a detail not shown here. Equal values may be shown once.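 Five compound concentrations were applied to cells in 96-well plates for 48 hours; endpoints were derived by simple linear interpolation of the resulting dose-response curve. GI50 = concentration required for 50% inhibition of growth.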 Active and inactive are the calls of the source. No stated cut-off is given here; in the data, active = GI50 up to about 1.1 µM and inactive = higher.
Columns and labels:
Test in all cases: NCI tumour cell line growth inhibition, 48 h
[1] = test system: SK-OV-3
[2] = test system: IGROV-1
[3] = test system: HOP-92
[4] = test system: A498
[5] = test system: SR
[6] = test system: RXF 393
[7] = test system: K562
[8] = test system: NCI-H23
[9] = test system: NCI/ADR-RES
[10] = test system: MCF7
[11] = test system: COLO 205
[12] = test system: MDA-MB-231
[13] = test system: NCI-H460
[14] = test system: OVCAR-5
[15] = test system: SK-MEL-2
[16] = test system: T47D
[17] = test system: SNB-19
[18] = test system: BT-549
[19] = test system: PC-3
[20] = test system: SF-268
[21] = test system: HCT-15
[22] = test system: SN12C
[23] = test system: OVCAR-4
[24] = test system: UACC-62
[25] = test system: SF-539
[26] = test system: HCT-116
[27] = test system: MDA-MB-435
[28] = test system: OVCAR-8
[29] = test system: M14
[30] = test system: UACC-257
[31] = test system: CCRF-CEM
[32] = test system: SW-620
[33] = test system: U-251
[34] = test system: MOLT-4
[35] = test system: NCI-H522
[36] = test system: HCC 2998
[37] = test system: SNB-75
[38] = test system: Malme-3M
[39] = test system: LOX IMVI
[40] = test system: NCI-H226
[41] = test system: A549
[42] = test system: HOP-62
[43] = test system: SK-MEL-5
[44] = test system: Hs-578T
[45] = test system: 786-0
[46] = test system: RPMI-8226
[47] = test system: OVCAR-3
[48] = test system: UO-31
[49] = test system: KM12
[50] = test system: SK-MEL-28
[51] = test system: DU-145
[52] = test system: SF-295
[53] = test system: CAKI-1
[54] = test system: TK-10
[55] = test system: ACHN
[56] = test system: MDA-N
[57] = test system: EKVX
[58] = test system: HT-29
[59] = test system: HL-60

Measured: GI50

CC(C)CC(C/C=C1/CC(CO)(COC(=O)C(C)(C)C)OC1=O)CC(C)C (configuration not stated)
active: [3] 0.893 µM | [7] 173 nM and 123 nM | [11] 0.136 µM | [13] 278 nM and 209 nM | [27] 410 nM and 818 nM | [31] 0.069 µM
15 µM and 14.7 µM: [21]
inactive: [1] 19.3 µM | [2] 15.2 µM and 12.1 µM | [4] 10 µM and 9.02 µM | [5] 1.51 µM | [6] 16.1 µM and 21.8 µM | [8] 11.8 µM and 10.9 µM | [9] 14 µM and 17.4 µM | [10] 19.7 µM and 18.2 µM | [12] 3.03 µM | [14] 6.7 µM and 11.8 µM | [15] 16.4 µM and 11.9 µM | [16] 19.5 µM and 11.7 µM | [17] 10.5 µM and 6.03 µM | [18] 11.7 µM and 15.5 µM | [19] 8.89 µM and 8.83 µM | [20] 10.8 µM and 12.4 µM | [22] 8.49 µM | [23] 16.2 µM and 18.2 µM | [24] 11.7 µM and 15.2 µM | [25] 6.49 µM | [26] 15.9 µM and 13.8 µM | [28] 19 µM and 17 µM | [29] 12.1 µM and 13.8 µM | [30] 16.4 µM and 16.8 µM | [32] 4.37 µM and 4.92 µM | [33] 8.13 µM | [34] 1.3 µM and 2.14 µM | [35] 14.1 µM and 14.8 µM | [36] 1.28 µM and 1.27 µM | [37] 13.7 µM and 11.1 µM

N=C1N(c2ccccc2)C(=S)/C(=N/c2ccccc2)N1c1ccccc1
7.19 µM: [21]
inactive: [1] 18.9 µM | [2] 12 µM | [38] 13.4 µM | [39] 2.01 µM | [3] 9.48 µM | [40] 20.2 µM | [4] 17.7 µM | [5] 2.58 µM | [41] 19.7 µM | [6] 11.9 µM | [7] 2.45 µM | [8] 6.03 µM | [42] 19.3 µM | [9] 18.4 µM | [10] 1.84 µM | [11] 3.3 µM | [12] 8.73 µM | [13] 11.5 µM | [43] 2.38 µM | [44] 10 µM | [14] 15.6 µM | [45] 9.68 µM | [15] 5.89 µM | [16] 2.57 µM | [17] 16.6 µM | [46] 2.31 µM | [47] 2.28 µM | [19] 10.2 µM | [48] 6.28 µM | [49] 14 µM | [20] 14.9 µM | [50] 16.8 µM | [51] 17.4 µM | [52] 16.6 µM | [22] 13.3 µM | [23] 12.7 µM | [24] 5.77 µM | [53] 14.4 µM | [25] 12.4 µM | [26] 2.53 µM | [27] 1.92 µM | [28] 4.95 µM | [54] 15 µM | [55] 8.28 µM | [29] 9.46 µM | [30] 2.55 µM | [31] 4.27 µM | [56] 2.45 µM | [57] 21.1 µM | [32] 4.27 µM | [58] 4.37 µM | [33] 14.2 µM | [34] 1.29 µM | [35] 2.81 µM | [36] 15.3 µM | [37] 15.9 µM | [59] 3.12 µM

COc1cc2c[n+](C)c3c4cc(OC)c(OC)cc4ccc3c2cc1OC
> 100 µM: [21]
inactive: [1] > 100 µM | [41] > 100 µM | [7] 26.1 µM | [11] 15.8 µM | [45] > 100 µM | [15] > 100 µM | [46] 48 µM | [47] 29.1 µM | [18] 32.1 µM | [19] 72.9 µM | [48] > 100 µM | [50] > 100 µM | [51] 25.4 µM | [52] > 100 µM | [23] 55.3 µM | [24] > 100 µM | [53] > 100 µM | [26] > 100 µM | [27] > 100 µM | [55] > 100 µM | [29] > 100 µM | [30] > 100 µM | [31] 35.3 µM | [57] > 100 µM | [32] 91.2 µM | [36] > 100 µM

Reference: ChEMBL document CHEMBL1201862, “PubChem BioAssay data set” (2004)
